Measured values: patent US20260116920A1, “HUMAN TRANSFERRIN RECEPTOR BINDING PEPTIDE” (PEPTIDREAM INC., priority 2021, published 2026)
Starred links: 1 amine or outer side, 2 acyl side, 3 side chain; linkers in the order of their positions; H or OH if unused. Positions of bridges follow the written chain, without caps; N, C: chain ends. Non-standard residues stand in square brackets, D forms with d. Residues, ends and D or L forms follow the SMILES beside them. Groups on a side chain read outwards from the residue. *: point of attachment. Trp(1-CH2COOH) = N[C@@H](Cc1cn(CC(=O)O)c2ccccc12)C(=O)O; Nle(6-morpholino) = N[C@@H](CCCCN1CCOCC1)C(=O)O; Phe(3-COOH) = N[C@@H](Cc1cccc(C(=O)O)c1)C(=O)O; Trp(7-aza) = N[C@@H](Cc1c[nH]c2ncccc12)C(=O)O; NH(CH2CH2O)8Me = COCCOCCOCCOCCOCCOCCOCCOCCN*; NMePhe(3-Cl) = CN[C@@H](Cc1cccc(Cl)c1)C(=O)O; Piperazinyl(4-CH2COOH) = O=C(O)CN1CCN(*)CC1; 3Pal(6-NH2) = Nc1ccc(C[C@H](N)C(=O)O)cn1; NMeY = CN[C@@H](Cc1ccc(O)cc1)C(=O)O; 4Pal = N[C@@H](Cc1ccncc1)C(=O)O; PEG4 = NCCOCCOCCOCCOCCC(=O)O; Carboxymethyl = O=C(O)C*; CO = O=C([*:1])[*:2]

Target: T1, human transferrin receptor (hTfR) (Homo sapiens, UniProt P02786)
T1 construct: made in house
T1 sequence (P02786 89-760 limits assumed): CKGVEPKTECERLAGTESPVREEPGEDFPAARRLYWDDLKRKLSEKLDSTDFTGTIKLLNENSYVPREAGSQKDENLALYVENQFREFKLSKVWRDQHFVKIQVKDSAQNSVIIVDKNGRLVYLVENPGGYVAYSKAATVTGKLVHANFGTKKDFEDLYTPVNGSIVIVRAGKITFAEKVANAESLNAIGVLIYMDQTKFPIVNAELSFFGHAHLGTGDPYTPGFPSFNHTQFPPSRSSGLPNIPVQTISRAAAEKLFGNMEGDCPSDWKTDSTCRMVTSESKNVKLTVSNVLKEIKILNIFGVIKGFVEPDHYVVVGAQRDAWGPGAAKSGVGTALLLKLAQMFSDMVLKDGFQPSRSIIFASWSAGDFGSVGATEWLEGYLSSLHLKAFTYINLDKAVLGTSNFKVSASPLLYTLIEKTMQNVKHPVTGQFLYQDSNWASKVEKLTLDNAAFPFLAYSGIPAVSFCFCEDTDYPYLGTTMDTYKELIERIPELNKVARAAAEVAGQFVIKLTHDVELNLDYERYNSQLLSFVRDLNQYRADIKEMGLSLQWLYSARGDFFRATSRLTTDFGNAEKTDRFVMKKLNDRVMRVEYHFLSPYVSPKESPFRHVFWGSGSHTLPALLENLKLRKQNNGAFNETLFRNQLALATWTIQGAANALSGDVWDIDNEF
Experiment: Evaluation of molecular interaction between transferrin receptor (hTfR) and peptide using surface plasmon resonance (SPR)
Type: binding
Details: peptide with linker, surface plasmon resonance; read-out: SPR (KD class for binding to hTfR)
Summary of the method: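 Binding kinetics of peptides to immobilized recombinant human TfR dimer were measured by SPR at 5–100 nM in a single-cycle format, with KD obtained from curve fitting.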

Kd, 1 to 100 nM:
CC[C@H](C)[C@@H]1NC(=O)[C@H](Cc2ccc(OC)cc2)NC(=O)[C@H](Cc2ccc(N)nc2)NC(=O)[C@H](CC(N)=O)NC(=O)[C@H](Cc2c[nH]c3ncccc23)NC(=O)[C@H](C(C)C)NC(=O)[C@H](Cc2cccc(Cl)c2)N(C)C(=O)[C@H](C(C)C)NC(=O)[C@H](C)NC(=O)CSC[C@@H](C(=O)NCCOCCOCCOCCOCCC(N)=O)NC(=O)[C@H](Cc2ccc(O)cc2)N(C)C(=O)[C@H](Cc2ccncc2)NC(=O)[C@H](CCCCN2CCOCC2)NC(=O)[C@H](CCC(=O)NCCOCCOCCOCCOCCOCCOCCOCCOC)NC(=O)[C@H]([C@@H](C)CC)NC1=O [compound 236] ({CH2CO}-AV[NMePhe(3-Cl)]V[Trp(7-aza)]N[3Pal(6-NH2)]Y(Me)IIE(NH(CH2CH2O)8Me)[Nle(6-morpholino)][4Pal][NMeY]C[PEG4]-NH2; thioether N-15)
CC[C@H](C)[C@@H]1NC(=O)[C@H](Cc2ccc(OC)cc2)NC(=O)[C@H](Cc2ccc(N)nc2)NC(=O)[C@H](CC(N)=O)NC(=O)[C@H](Cc2c[nH]c3ncccc23)NC(=O)[C@H](C(C)C)NC(=O)[C@H](Cc2cccc(Cl)c2)N(C)C(=O)[C@H](C(C)C)NC(=O)[C@H](C)NC(=O)CSC[C@@H](C(=O)NCCOCCOCCOCCOCCC(N)=O)NC(=O)[C@H](Cc2ccc(O)cc2)N(C)C(=O)[C@H](Cc2ccncc2)NC(=O)[C@H](CCCCNC(=O)N2CCN(CC(=O)O)CC2)NC(=O)[C@H](CCC(=O)NCCOCCOCCOCCOCCOCCOCCOCCOC)NC(=O)[C@H]([C@@H](C)CC)NC1=O [compound 237] ({CH2CO}-AV[NMePhe(3-Cl)]V[Trp(7-aza)]N[3Pal(6-NH2)]Y(Me)IIE(NH(CH2CH2O)8Me)K([CO-Piperazinyl(4-CH2COOH)])[4Pal][NMeY]C[PEG4]-NH2; thioether N-15)
CC[C@H](C)[C@@H]1NC(=O)[C@H](Cc2ccc(OCC(=O)O)cc2)NC(=O)[C@H](Cc2ccc(N)nc2)NC(=O)[C@H](CC(N)=O)NC(=O)[C@H](Cc2c[nH]c3ccccc23)NC(=O)[C@H](C(C)C)NC(=O)[C@H](Cc2cccc(Cl)c2)N(C)C(=O)[C@H](C(C)C)NC(=O)[C@H](C)NC(=O)CSC[C@@H](C(=O)NCCOCCOCCOCCOCCC(N)=O)NC(=O)[C@H](Cc2ccc(O)cc2)N(C)C(=O)[C@H](Cc2cccc(C(=O)O)c2)NC(=O)[C@H](CCCNC(=N)N)NC(=O)[C@H](CCC(=O)NCCOCCOCCOCCOCCOCCOCCOCCOC)NC(=O)[C@H]([C@@H](C)CC)NC1=O [compound 238] ({CH2CO}-AV[NMePhe(3-Cl)]VWN[3Pal(6-NH2)]Y(Carboxymethyl)IIE(NH(CH2CH2O)8Me)R[Phe(3-COOH)][NMeY]C[PEG4]-NH2; thioether N-15)
CC[C@H](C)[C@@H]1NC(=O)[C@H](Cc2ccc(OCC(=O)O)cc2)NC(=O)[C@H](Cc2ccc(N)nc2)NC(=O)[C@H](CC(N)=O)NC(=O)[C@H](Cc2c[nH]c3ncccc23)NC(=O)[C@H](C(C)C)NC(=O)[C@H](Cc2cccc(Cl)c2)N(C)C(=O)[C@H](C(C)C)NC(=O)[C@H](C)NC(=O)CSC[C@@H](C(=O)NCCOCCOCCOCCOCCC(N)=O)NC(=O)[C@H](Cc2ccc(O)cc2)N(C)C(=O)[C@H](Cc2cccc(C(=O)O)c2)NC(=O)[C@H](CCCNC(=N)N)NC(=O)[C@H](CCC(=O)NCCOCCOCCOCCOCCOCCOCCOCCOC)NC(=O)[C@H]([C@@H](C)CC)NC1=O [compound 239] ({CH2CO}-AV[NMePhe(3-Cl)]V[Trp(7-aza)]N[3Pal(6-NH2)]Y(Carboxymethyl)IIE(NH(CH2CH2O)8Me)R[Phe(3-COOH)][NMeY]C[PEG4]-NH2; thioether N-15)
CC[C@H](C)[C@@H]1NC(=O)[C@H](Cc2ccc(OCC(=O)O)cc2)NC(=O)[C@H](Cc2ccc(O)cc2)NC(=O)[C@H](CC(N)=O)NC(=O)[C@H](Cc2cn(CC(=O)O)c3ccccc23)NC(=O)[C@H](C(C)C)NC(=O)[C@H](Cc2cccc(Cl)c2)N(C)C(=O)[C@H](C(C)C)NC(=O)[C@H](C)NC(=O)CSC[C@@H](C(=O)NCCOCCOCCOCCOCCC(N)=O)NC(=O)[C@H](Cc2ccc(O)cc2)N(C)C(=O)[C@H](Cc2cccc(C(=O)O)c2)NC(=O)[C@H](CCCCN2CCOCC2)NC(=O)[C@H](CCCCN2CCOCC2)NC(=O)[C@H]([C@@H](C)CC)NC1=O [compound 240] ({CH2CO}-AV[NMePhe(3-Cl)]V[Trp(1-CH2COOH)]NYY(Carboxymethyl)II[Nle(6-morpholino)][Nle(6-morpholino)][Phe(3-COOH)][NMeY]C[PEG4]-NH2; thioether N-15)
CC[C@H](C)[C@@H]1NC(=O)[C@H](Cc2ccc(O)cc2)NC(=O)[C@H](Cc2ccc(O)cc2)NC(=O)[C@H](CC(N)=O)NC(=O)[C@H](Cc2c[nH]c3ccccc23)N(C)C(=O)[C@H](C(C)C)NC(=O)[C@H](Cc2ccccc2)N(C)C(=O)[C@H](C(C)C)NC(=O)[C@H](C)NC(=O)CSC[C@@H](C(=O)NCC(=O)N[C@H](CCC(=O)O)C(=O)N[C@H](CCC(=O)O)C(=O)N[C@H](CCC(=O)O)C(=O)N[C@H](CO)C(=O)N[C@H](CO)C(=O)N[C@@H](CCCCN=[N+]=[N-])C(N)=O)NC(=O)[C@H](Cc2ccc(O)cc2)N(C)C(=O)[C@H](Cc2ccc(O)cc2)NC(=O)[C@H](CCCNC(=N)N)NC(=O)[C@H](CCCCN)NC(=O)[C@H]([C@@H](C)CC)NC1=O [compound 241]
